Measured values taken from PubChem BioAssay (NCI).
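These data come from cells grown in 96-well plates and exposed to compound for 48 hours at five concentrations. GI50: concentration for 50% inhibition of growth. At the TGI there is no net growth.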

Key:
Assay in all cases: growth of human tumour cells (NCI), 48 h
CCRF-CEM leukemia = tested on: CCRF-CEM leukemia
HT29 colon = tested on: HT29 colon
HOP-92 NSCLC = tested on: HOP-92 NSCLC
OVCAR-8 ovarian = tested on: OVCAR-8 ovarian
HOP-62 NSCLC = tested on: HOP-62 NSCLC
NCI-H23 lung = tested on: NCI-H23 lung
UACC-62 melanoma = tested on: UACC-62 melanoma
HCC-2998 colon = tested on: HCC-2998 colon
SK-MEL-5 melanoma = tested on: SK-MEL-5 melanoma
K-562 leukemia = tested on: K-562 leukemia
SF-539 CNS = tested on: SF-539 CNS
KM12 colon = tested on: KM12 colon
HS 578T breast = tested on: HS 578T breast
U251 CNS = tested on: U251 CNS
SK-MEL-28 melanoma = tested on: SK-MEL-28 melanoma
SNB-19 CNS = tested on: SNB-19 CNS
SW-620 colon = tested on: SW-620 colon
NCI-H460 lung = tested on: NCI-H460 lung
A498 renal = tested on: A498 renal
COLO 205 colon = tested on: COLO 205 colon
HL-60(TB) leukemia = tested on: HL-60(TB) leukemia
UO-31 renal = tested on: UO-31 renal
SK-MEL-2 melanoma = tested on: SK-MEL-2 melanoma
HCT-116 colon = tested on: HCT-116 colon
SN12C renal = tested on: SN12C renal
CAKI-1 renal = tested on: CAKI-1 renal
RPMI-8226 leukemia = tested on: RPMI-8226 leukemia
MDA-MB-231 breast = tested on: MDA-MB-231 breast
SF-295 CNS = tested on: SF-295 CNS
MDA-MB-435 = tested on: MDA-MB-435
786-0 renal = tested on: 786-0 renal
TK-10 renal = tested on: TK-10 renal
EKVX NSCLC = tested on: EKVX NSCLC
SF-268 CNS = tested on: SF-268 CNS
NCI/ADR-RES ovarian = tested on: NCI/ADR-RES ovarian
NCI-H522 lung = tested on: NCI-H522 lung
HCT-15 colon = tested on: HCT-15 colon
NCI-H226 lung = tested on: NCI-H226 lung
PC-3 prostate = tested on: PC-3 prostate
LOX IMVI melanoma = tested on: LOX IMVI melanoma
UACC-257 melanoma = tested on: UACC-257 melanoma
MOLT-4 leukemia = tested on: MOLT-4 leukemia
MCF7 breast = tested on: MCF7 breast
M14 melanoma = tested on: M14 melanoma
DU-145 prostate = tested on: DU-145 prostate
OVCAR-3 ovarian = tested on: OVCAR-3 ovarian
RXF 393 renal = tested on: RXF 393 renal
OVCAR-5 ovarian = tested on: OVCAR-5 ovarian
A549 NSCLC = tested on: A549 NSCLC
ACHN renal = tested on: ACHN renal
SK-OV-3 ovarian = tested on: SK-OV-3 ovarian
BT-549 breast = tested on: BT-549 breast

## COc1cc2c(/C=C3\C(=O)Nc4ccccc43)c[nH]c2cc1C
CCRF-CEM leukemia
  GI50: 0.0196 µM
  TGI: 0.0734 µM
HT29 colon
  GI50: 0.152 µM
  TGI: > 100 µM
HOP-92 NSCLC
  GI50: 1.54 µM
  TGI: 22.3 µM
OVCAR-8 ovarian
  GI50: 0.0917 µM
  TGI: 7.19 µM
HOP-62 NSCLC
  GI50: < 0.01 µM
  TGI: 10.7 µM
NCI-H23 lung
  GI50: 0.0115 µM
  TGI: 0.0719 µM
UACC-62 melanoma
  GI50: 0.0775 µM
  TGI: 7.43 µM
HCC-2998 colon
  GI50: < 0.0179 µM
  TGI: 0.167 µM
SK-MEL-5 melanoma
  GI50: < 0.015 µM
  TGI: 1.89 µM
K-562 leukemia
  GI50: 0.225 µM
  TGI: 61.4 µM
SF-539 CNS
  GI50: < 0.0138 µM
  TGI: < 0.0243 µM
KM12 colon
  GI50: 0.239 µM
  TGI: 0.824 µM
HS 578T breast
  GI50: < 0.0229 µM
  TGI: 32.1 µM
U251 CNS
  GI50: 0.94 µM
  TGI: 4.82 µM
SK-MEL-28 melanoma
  GI50: 0.021 µM
  TGI: 20.3 µM
SNB-19 CNS
  GI50: 0.112 µM
  TGI: 32.3 µM
SW-620 colon
  GI50: < 0.0209 µM
  TGI: 39.8 µM
NCI-H460 lung
  GI50: 0.0761 µM
  TGI: > 100 µM
A498 renal
  GI50: < 0.0243 µM
  TGI: 16.5 µM
COLO 205 colon
  GI50: 0.118 µM
  TGI: 4.39 µM
HL-60(TB) leukemia
  GI50: 0.494 µM
  TGI: 4.45 µM
UO-31 renal
  GI50: 2.87 µM
  TGI: > 40.8 µM
SK-MEL-2 melanoma
  GI50: 17.7 µM
  TGI: > 63.4 µM
HCT-116 colon
  GI50: < 0.01 µM
  TGI: 1.22 µM
SN12C renal
  GI50: 0.275 µM
  TGI: 1.39 µM
CAKI-1 renal
  GI50: 0.409 µM
  TGI: 13.3 µM
RPMI-8226 leukemia
  GI50: 0.0393 µM
  TGI: 16.2 µM
MDA-MB-231 breast
  GI50: 0.289 µM
  TGI: 2.69 µM
SF-295 CNS
  GI50: 0.227 µM
  TGI: 1.65 µM
MDA-MB-435
  GI50: 0.0566 µM
  TGI: 0.403 µM
786-0 renal
  GI50: < 0.0218 µM
  TGI: 12.6 µM
TK-10 renal
  GI50: 1.31 µM
  TGI: 9.95 µM
EKVX NSCLC
  GI50: 0.0559 µM
  TGI: 26.5 µM
SF-268 CNS
  GI50: 0.861 µM
  TGI: > 100 µM
NCI/ADR-RES ovarian
  GI50: < 0.01 µM
  TGI: 0.0736 µM
NCI-H522 lung
  GI50: 0.833 µM
  TGI: > 35.3 µM
HCT-15 colon
  GI50: 0.725 µM
  TGI: 2.93 µM
NCI-H226 lung
  GI50: 0.035 µM
  TGI: 19.7 µM
PC-3 prostate
  GI50: 0.213 µM
  TGI: 13.2 µM
LOX IMVI melanoma
  GI50: 0.652 µM
  TGI: 4.19 µM
UACC-257 melanoma
  GI50: < 0.01 µM
  TGI: 26 µM
MOLT-4 leukemia
  GI50: 0.142 µM
  TGI: 2.52 µM
MCF7 breast
  TGI: > 82.1 µM
M14 melanoma
  GI50: < 0.0178 µM
  TGI: 0.843 µM
DU-145 prostate
  GI50: 0.0242 µM
  TGI: 12.3 µM
OVCAR-3 ovarian
  GI50: 0.306 µM
  TGI: 11.8 µM
RXF 393 renal
  GI50: < 0.0231 µM
  TGI: 0.71 µM
OVCAR-5 ovarian
  GI50: 0.62 µM
  TGI: 19.1 µM
A549 NSCLC
  GI50: < 0.0289 µM
  TGI: 17.3 µM
ACHN renal
  GI50: 1.64 µM
  TGI: 4.51 µM
SK-OV-3 ovarian
  GI50: 0.0856 µM
  TGI: 3.21 µM
BT-549 breast
  GI50: 0.294 µM
  TGI: 15.8 µM
